Assay results reported in US20080249028A1, “Thyrotropin-Releasing Hormone Analogs and Method of Use” (Roger Williams Hospital, priority 2005, published 2008).

What was measured:
rat = details: injection of TRH into the rat brain; cited from earlier work
pancreatic islets = test: Pancreatic islet count (HE histological staining); format: in vivo, rat; details: by activation of the TRH receptor
Experimental: (§1) Partial pancreatic tissue was extracted with 1 N glacial acetic acid for insulin assay by ELISA. Four animals were used in each group. Each pancreas was placed in head (central) to tail (peripheral) orientation and immediately snap frozen and kept at −80° C. This orientation of the tissue provided an opportunity for sectioning of equal surface areas when cutting the frozen tissue. In this manner, the pancreas sections included every portion of the pancreas in parallel, while avoiding variations caused by sectioning from different areas. The HE histological staining was performed on serial sections (5 um thick) and islets were counted in 10 slides for each sample and standardized by dividing the total area (islets/cm^2).

[1] = tested on: STZ-induced hyperglycemic rats; test: Serum insulin assay after TRH treatment of STZ rats; format: in vivo, rat; details: following TRH vs. control and STZ groups
Experimental: as §1
(§2) A group of animals were given a single dose i.p. of 20 μg/kg BW or 5-40 μg BW of TRH or TRH analogs on the seventh day or on the third day after STZ administration, which allowed for examination of the TRH/TRH analog treatment and the degree of pancreatic damage in the diabetic animal. Again, food intake, body weight and blood glucose levels of each of the animals were monitored. When hyperglycemia was determined to be reversed by TRH/TRH analog, the animal was sacrificed. Blood samples were collected for insulin assay and the pancreas and muscles were collected for further pathological and physiological tests.

[2] = tested on: STZ-induced hyperglycemic rats; test: Effect on STZ-induced hyperglycemia in rats (blood glucose level); format: in vivo, rat
Experimental: (§3) Male Sprague-Dawley rats (S.D. 180 g) were used in the experiments described below. The animals lived in individual metabolism cages with free access to food and water, while food and body weight were monitored daily. Peripheral blood samples (approximately 10 μl) were obtained from the tail vein of the animals. The blood glucose levels were measured by using Accu-Check Blood Glucose Meter (Roche Diagnosetics Corporation, IN). Beta cell function was evaluated once every two days over a 2-week period by an individual unaware of the treatment group. Animals were evaluated separately for blood glucose level, food intake and body weight. The endpoint check was pancreatic insulin content and pancreatic beta cell number.
Streptozotocin (STZ) was used to chemically induce damage in pancreatic function in order to create a hyperglycemic state in the animals. Eight-week old male Sprague-Dawley rats (200.00 g±10 g) were injected with STZ by intraperitoneal (i.p.) (65 mg/kg body weight (BW)) to create hyperglycemic animals (24 to 48 hours). Blood glucose levels were monitored daily. Onset of hyperglycemia occurred usually about 24 to 48 hours after STZ administration.
as §2, with “A group of animals were given a single dose i.p. of 20 μg/kg BW or 5-40 μg BW of TRH or TRH analogs on” left out
(§4) The figures shown in the tables are blood glucose levels (mg/dL; i.e., milligrams of glucose per deciliter of blood).

Sprague-Dawley rats = test: Blood glucose level in rats given compound alone (no STZ); format: in vivo, rat; details: Table 1, rats, TRH alone (no STZ)
Experimental: as §3, §4

[3] = tested on: pancreatic beta cell function; test: Beta cell function evaluation after pancreatic damage; format: in vivo, rat; details: at 2 weeks after pancreatic damage
Experimental: as §3

[4] = in vivo; cited from earlier work

For NC(=O)[C@@H]1CCCN1C(=O)[C@H](Cc1cnc[nH]1)NC(=O)[C@@H]1CCC(=O)N1 [TRH, L-pyroglutamyl-L-histidyl-L-prolineamide, reference compound], which blood glucose levels (rat) is on record?
The blood glucose levels was “reduce blood glucose levels”.

What about the “number of pancreatic islets” value (pancreatic islets) of the same molecule?
The value was “increases”.

What about the “levels of insulin in the serum” value [1] of the same molecule?
Its value is “increased”.

What about the hyperglycemia ([2]; TRH administration on day 3 following STZ injection, after 6 days) of the same molecule?
The hyperglycemia was “reversed the hyperglycemia”.

What about the blood glucose level ([2]; Table 1, rats, STZ + compound i.p., Day 1) of the same molecule?
Its blood glucose level is 107.8 mg/dL.

And the blood glucose level ([2]; Table 1, rats, STZ + compound i.p., Day 2)?
Its blood glucose level is 321.4 mg/dL.

What about the blood glucose level ([2]; Table 1, rats, STZ + compound i.p., Day 4) of the same molecule?
The blood glucose level was 448.8 mg/dL.

And the blood glucose level ([2]; Table 1, rats, STZ + compound i.p., Day 9)?
The blood glucose level was 191.2 mg/dL.

What about the blood glucose level ([2]; Table 1, rats, STZ + compound i.p., Day 15) of the same molecule?
Its blood glucose level is 182.6 mg/dL.

And the blood glucose level ([2]; Table 1, rats, STZ + compound i.p., Day 22)?
The blood glucose level was 380.2 mg/dL.

What about the blood glucose level ([2]; Table 1, rats, STZ + compound i.p., Day 29) of the same molecule?
The blood glucose level was 337 mg/dL.

And the blood glucose level ([2]; Table 1, rats, STZ + compound i.p., Day 39)?
The blood glucose level was 283.4 mg/dL.

What about the blood glucose level ([2]; Table 1, rats, STZ + compound i.p., Day 43) of the same molecule?
The blood glucose level was 220.4 mg/dL.

What about the blood glucose level ([2]; Table 1, rats, STZ + compound i.p., Day 50) of the same molecule?
Its blood glucose level is 182 mg/dL.

And the blood glucose level ([2]; Table 1, rats, STZ + compound i.p., Day 53)?
The blood glucose level was 151 mg/dL.

And the blood glucose level ([2]; Table 1, rats, STZ + compound i.p., Day 56)?
Its blood glucose level is 139 mg/dL.

What about the blood glucose level ([2]; Table 1, rats, STZ + compound i.p., Day 60) of the same molecule?
The blood glucose level was 180 mg/dL.

What about the blood glucose level ([2]; Table 1, rats, STZ + compound i.p., Day 64) of the same molecule?
The blood glucose level was 156 mg/dL.

And the “glucose levels over time” value ([2]; rat treated with TRH after STZ-induced hyperglycemia, over a two month time period)?
Its value is “continually decreased”.

And the STZ induced hyperglycemia ([2]; rats, after seven days of TRH and STZ treatment)?
The STZ induced hyperglycemia was “normalized”.

And the blood glucose level (Sprague-Dawley rats; Day 1)?
Its blood glucose level is 101.5 mg/dL.

What about the blood glucose level (Sprague-Dawley rats; Day 2) of the same molecule?
The blood glucose level was 125 mg/dL.

What about the blood glucose level (Sprague-Dawley rats; Day 4) of the same molecule?
Its blood glucose level is 125 mg/dL.

And the blood glucose level (Sprague-Dawley rats; Day 9)?
Its blood glucose level is 96 mg/dL.

What about the blood glucose level (Sprague-Dawley rats; Day 15) of the same molecule?
Its blood glucose level is 82.5 mg/dL.

What about the blood glucose level (Sprague-Dawley rats; Day 22) of the same molecule?
The blood glucose level was 89 mg/dL.

What about the blood glucose level (Sprague-Dawley rats; Day 29) of the same molecule?
The blood glucose level was 74.5 mg/dL.

What about the blood glucose level (Sprague-Dawley rats; Day 39) of the same molecule?
The blood glucose level was 80 mg/dL.

And the blood glucose level (Sprague-Dawley rats; Day 43)?
The blood glucose level was 90.5 mg/dL.

What about the blood glucose level (Sprague-Dawley rats; Day 50) of the same molecule?
The blood glucose level was 93 mg/dL.

And the blood glucose level (Sprague-Dawley rats; Day 53)?
The blood glucose level was 78 mg/dL.

And the blood glucose level (Sprague-Dawley rats; Day 56)?
The blood glucose level was 75 mg/dL.

What about the blood glucose level (Sprague-Dawley rats; Day 60) of the same molecule?
Its blood glucose level is 67 mg/dL.

And the blood glucose level (Sprague-Dawley rats; Day 64)?
The blood glucose level was 85 mg/dL.

What about the pancreatic endocrine outcome [3] of the same molecule?
Its pancreatic endocrine outcome is “improved”.

What about the plasma half-life [4] of the same molecule?
Its plasma half-life is 4 to 5 min.

With CN(N=O)C(=O)N[C@@H]1[C@@H](O)[C@H](O)[C@@H](CO)O[C@@H]1O [S, streptozotocin, reference compound] as the molecule, how does the blood glucose level ([2]; Table 1, rats, STZ alone, Day 1) read?
The blood glucose level was 99.8 mg/dL.

What about the blood glucose level ([2]; Table 1, rats, STZ alone, Day 2) of the same molecule?
Its blood glucose level is 313.2 mg/dL.

And the blood glucose level ([2]; Table 1, rats, STZ alone, Day 4)?
Its blood glucose level is 433.6 mg/dL.

And the blood glucose level ([2]; Table 1, rats, STZ alone, Day 9)?
Its blood glucose level is 320 mg/dL.

And the blood glucose level ([2]; Table 1, rats, STZ alone, Day 15)?
Its blood glucose level is 393.8 mg/dL.

And the blood glucose level ([2]; Table 1, rats, STZ alone, Day 22)?
Its blood glucose level is 463.8 mg/dL.

What about the blood glucose level ([2]; Table 1, rats, STZ alone, Day 29) of the same molecule?
Its blood glucose level is 522.4 mg/dL.

What about the blood glucose level ([2]; Table 1, rats, STZ alone, Day 39) of the same molecule?
The blood glucose level was 537.2 mg/dL.

And the blood glucose level ([2]; Table 1, rats, STZ alone, Day 43)?
Its blood glucose level is 466.8 mg/dL.

And the blood glucose level ([2]; Table 1, rats, STZ alone, Day 50)?
Its blood glucose level is 485 mg/dL.

And the blood glucose level ([2]; Table 1, rats, STZ alone, Day 53)?
Its blood glucose level is 460 mg/dL.

And the blood glucose level ([2]; Table 1, rats, STZ alone, Day 56)?
The blood glucose level was 453 mg/dL.

And the blood glucose level ([2]; Table 1, rats, STZ alone, Day 60)?
The blood glucose level was 542 mg/dL.

What about the blood glucose level ([2]; Table 1, rats, STZ alone, Day 64) of the same molecule?
Its blood glucose level is 482 mg/dL.

What about the blood glucose level ([2]; Table 2, rats, STZ alone, Day 1) of the same molecule?
The blood glucose level was 98 mg/dL.

What about the blood glucose level ([2]; Table 2, rats, STZ alone, Day 4) of the same molecule?
The blood glucose level was 103 mg/dL.

And the blood glucose level ([2]; Table 2, rats, STZ alone, Day 7)?
Its blood glucose level is 506 mg/dL.

What about the blood glucose level ([2]; Table 2, rats, STZ alone, Day 11) of the same molecule?
Its blood glucose level is 494 mg/dL.

What about the blood glucose level ([2]; Table 2, rats, STZ alone, Day 15) of the same molecule?
The blood glucose level was 329 mg/dL.

What about the blood glucose level ([2]; Table 2, rats, STZ alone, Day 18) of the same molecule?
The blood glucose level was 432 mg/dL.

What about the blood glucose level ([2]; Table 2, rats, STZ alone, Day 21) of the same molecule?
Its blood glucose level is 453 mg/dL.

And the blood glucose level ([2]; Table 2, rats, STZ alone, Day 25)?
The blood glucose level was 480 mg/dL.

And the blood glucose level ([2]; Table 2, rats, STZ alone, Day 28)?
Its blood glucose level is 499 mg/dL.

And the blood glucose level ([2]; Table 2, rats, STZ alone, Day 32)?
The blood glucose level was 529 mg/dL.

And the blood glucose level ([2]; Table 2, rats, STZ alone, Day 35)?
The blood glucose level was 499 mg/dL.

And the blood glucose level ([2]; Table 2, rats, STZ alone, Day 39)?
The blood glucose level was 508 mg/dL.

And the blood glucose level ([2]; Table 2, rats, STZ alone, Day 42)?
Its blood glucose level is 549 mg/dL.

What about the blood glucose level ([2]; Table 2, rats, STZ alone, Day 46) of the same molecule?
The blood glucose level was 536 mg/dL.

And the blood glucose level ([2]; Table 2, rats, STZ alone, Day 54)?
The blood glucose level was 500 mg/dL.

What about the blood glucose level ([2]; Table 2, rats, STZ alone, Day 61) of the same molecule?
The blood glucose level was 582 mg/dL.

What about the “onset of hyperglycemia after STZ administration” value ([2]; rats, STZ 65 mg/kg BW i.p.) of the same molecule?
The value was 24 to 48 h.
